For data set [1], the system named is HIV-1. Kind of data set: Infectious HIV-1 multiplication (plaque forming units). Type of data set: cell-based, human immunodeficiency virus type 1 (HIV-1). The note with it: in words. The procedure:
(§1) In brief, CEM-SS cells were infected with HIV-1. At various times after infection (3, 6, 8, 10, 13 days) the overlay fluids were replaced with fresh medium. Overlay fluids replaced on days 8, 10 and 13 were saved at -80° C. to measure HIV-1 plaque forming units according to our described protocol above and RT activity (described by Poiesz et al., Proc. Natl. Acad. Sci. U.S.A. 77, 7415 (1980). Results are given in Table 8 below.

The subject of a further data set is extracellular HSV-2. The experiment in a line: Direct inactivation of extracellular HSV-2 infectivity. It counts as cell-based, herpes simplex virus type 2 (HSV-2). Conditions: 2 μM, in words.
Data set [2] deals with herpes simplex virus type 2 (HSV-2). Kind of data set: HSV-2 plaque formation in Vero cell monolayers. It counts as cell-based. Conditions: 2 μM, in words.
Data set [3] relates to HIV-1. The experiment in a line: HIV-1 plaque assay, inhibitor added 30 minutes before infection. It counts as cell-based, human immunodeficiency virus type 1 (HIV-1). The note with it: for Inhibition (%): HIV-1 plaque formation, Table 5. The source says: Dextran sulfate was used as a positive control. […] Plaques were counted at five days after infection.
(§2) By way of further background, in our assay HIV-1 syncytial plaques are seen as large, multicellular foci (10 to 25 nuclei/syncytium) that appear either brown and granular or clear. Since the number of HIV-1 syncytial plaques correlates with reverse transcriptase (RT) and p24 core antigen activity in the HIV-1 infected cell overlay fluids, the syncytial plaque assay can be used to quantify the amount of infectious virus. Reverse transcriptase activity was assayed according to a described procedure (B. J. Poeisz et al., Proc. Natl. Acad. Sci. (U.S.A.) […], 7415 (1980)). The activity of p24 core antigen induced by HIV-1 infection of CEM-SS cells was measured spectrophotometrically using the commercial Abbott EIA.
Compound E inhibited HIV-1 plaque count 43%, 83%, and 91% at concentrations of 0.2, 0.4, and 2.0 μM, respectively, compared to untreated controls. […] In other experiments addition of 0.2, 0.4 and 2.0 μM Compound E starting sixty minutes after HIV-1 infection inhibited HIV-1 plaque formation 28%, 59% and 97% respectively, compared to untreated controls.

A further data set relates to reverse transcriptase. The experiment in a line: Reverse transcriptase activity in HIV-1 infected CEM-SS cells. It counts as cell-based, human immunodeficiency virus type 1 (HIV-1). Conditions: in words. The procedure: as §2, §1
Another data set relates to extracellular HIV-1. Kind of data set: Direct inactivation of extracellular HIV-1 infectivity. It counts as cell-based, human immunodeficiency virus type 1 (HIV-1). How it is done:
Since ether lipid (EL) analogs are membrane interactive, see, e.g. , A. Noseda et al., Biochim. Biophys. Acta 945, 92 (1988), we determined whether Compound E could directly inactivate extracellular HIV-1 infectivity. About 350 plaque forming units of HIV-1 were mixed with antiviral concentrations (2.0 μM) of E or with control medium alone in a total volume of 100 μl. After three hours of incubation at 37° C., the virus compound and virus medium mixtures were diluted 20-fold to reduce the concentration of Compound E below a significant antiviral concentration. Aliquots (100 μl) of the diluted HIV-1 were added to CEM-SS cell monolayers to measure residual virus infectivity by plaque count. A mean of 22 plaques (N=2) were counted for Compound E-treated HIV-1 and a mean of 27 plaques (N=2) for medium-treated HIV-1.

For data set [4], the system named is KB cells. The experiment in a line: Synergism with vincristine on KB cell number. Type of data set: cell-based, human. The procedure:
(§3) All cells were grown in Eagle's minimum essential medium supplemented with 10% fetal bovine serum with the exception of HL-60 and K562-4 cells which were grown in RPMI 1640 medium supplemented with 10% fetal bovine serum. The KB and MH1 C1 cells, from a human nasopharyngeal carcinoma and rat hepatoma, respectively, were from American Type Culture Collection. The ChaGo cells, a human lung carcinoma, was generously provided by Dr. A. H. Tashjian. The human promyeloblastic leukemia cells, K562-4 were kindly supplied by Dr. Bismarck Lozzio. HL-60 cells, a human promyelocytic leukemia, and P388 cells, a mouse leukemia, were obtained from Dr. Y.-C. Cheng. The 77 cells were put into culture by us by excising the 7777, Morris hepatoma from a rat graciously supplied by the late Dr. H. P. Morris.
(§4) Cells were transferred or removed from monolayers for counting after a one or two minute incubation with 0.02% sodium ethylenediamine tetraacetate in phosphate-buffered saline to dislodge the cells. Flasks were seeded at a density of 1×10^3 cells per cm^2 or 2×10^4 per milliliter for suspension cultures. The HL-60 and K562-4 suspension cultures were used about 24 hours after seeding. The compounds to be tested were diluted to various concentrations and added to the monolayer cultures. All of the test compounds were dissolved in 10% dimethyl sulfoxide (DMSO) at concentrations that would give a final DMSO concentration of 0.1%. Control flasks contained 0.1% DMSO. Control cell replication was followed until approximately three doublings had occurred, and then all of the treated cells were counted.
For example, 1 μM VIII reduced cell number to 45% of control and 0.004 μg per milliliter vincristine caused a reduction to 27% of control. Thus, the two agents together should have reduced cell number to 12% of control if they acted additively.

A further data set concerns K562-4 cells. Kind of data set: Cytostatic activity on K562-4 cells. It counts as cell-based. Conditions: Homo sapiens; K562-4 (printed X562-4). The procedure:
as §3, §4

In the next data set the test system is 77 cells. Kind of data set: Cytostatic activity on 77 cells. It counts as cell-based, rat. The note with it: for IC50: 77 cells, after controls doubled three times; for 77/KB: ratio of IC50 values ± standard error of the quotient. The procedure:
as §3, §4
(§5) The KB cells represented cells with low alkyl cleavage activity (less than the detectable level of 0.1-0.2 units per milligram protein by our assay procedure) and the 77 cells represented cells similar to normal cells with relatively high alkyl cleavage activity (1.6 units per milligram of protein). Our value for the cleavage activity of cultured 77 cells agrees well with the value of 1.4 units per milligram of protein reported by Soodsma et al, Cancer Res. 30, 309 (1970), for freshly excised 7777 Morris hepatoma tissue. In further confirmation of our assay procedure, we obtained a value of 12.6±4.1 units per milligram of protein in excised rat liver compared to 7.3 units per milligram of protein in rat liver measured by Soodsma et al.

For data set [5], the system named is P388 mouse leukemia cells. The experiment in a line: In vivo anti-tumor activity, P388 mouse leukemia. The note with it: for increased survival: days 1, 5, and 9. Set-up: species or system mouse (BDF1 female mice). The source says: P388 mouse leukemia cells were transplanted by intraperitoneal injection of 1×10^6 cells into BDF1 female mice on day 0. Treatments were begun on day 1. Control mice received the vehicle for the test compounds. […]

For data set [6], the system named is KB cells. Kind of data set: Cytostatic activity on KB cells. It counts as cell-based. Conditions: Homo sapiens; KB cells, after controls doubled three times; read-out: IC50 KB. How it is done: as §3, §4, §5
A further data set has as its system HL-60 cells. Kind of data set: Cytostatic activity on HL-60 cells. Type of data set: cell-based. The note with it: Homo sapiens. The procedure: as §3
(§6) Cells were transferred or removed from monolayers for counting after a one or two minute incubation with 0.02% sodium ethylenediamine tetraacetate in phosphate-buffered saline to dislodge the cells. Flasks were seeded at a density of 1×10^3 cells per cm^2 or 2×10^4 per milliliter for suspension cultures. The HL-60 and K562-4 suspension cultures were used about 24 hours after seeding. […] Control cell replication was followed until approximately three doublings had occurred, and then all of the treated cells were counted.

For a further data set, the system named is P388 cells. The experiment in a line: Cytostatic activity on P388 cells. The note with it: Mus musculus. Type of data set: cell-based. The procedure:
as §3, §6

In another data set the test system is ChaGo cells. Kind of data set: Cytostatic activity on ChaGo cells. Type of data set: cell-based, human. The procedure: as §3, §4
The next data set deals with MH1 C1 cells. The experiment in a line: Cytostatic activity on MH1 C1 cells. Type of data set: cell-based, rat. How it is done: as §3, §4
Data set [7] deals with HIV-1 binding to target T-cells. The note with it: in words; cited from earlier work.

Read-outs that look alike come from different tables or passages of the source.

In general, IC50 refers to the concentration needed to halve the response being measured.

Take `CCCCCCCCCCCCCCCCSCC(C[N+](C)(C)CCO)OC.[I-]` (racemic) [Compound 12, (±)-3-hexadecylthio-2-methoxy-N,N-dimethyl-N-β-hydroxyethyl-1-propyl ammonium iodide]: the infectious virus production result with HIV-1 [1] (13 days) is on record as “infectious virus production is still inhibited”; with HIV-1 [1] (between 8 and 10 days), “markedly inhibit infectious virus production”. For the same compound, the “inactivation of extracellular HSV-2 infectivity” value in the data set on extracellular HSV-2 is given as “nor directly inactivates extracellular HSV-2 infectivity”. Also, the “inhibition of HSV-2 plaque formation” value in [2] is given as “neither inhibits herpes simplex virus type 2 (HSV-2) plaque formation in Vero cell monolayers”. In the data set with HIV-1 [3] (vs HSV-2, in words), the “selectivity against HIV-1 plaque formation” value is given as “selective inhibitory activity against HIV-1 plaque formation”. Moreover, the reverse transcriptase activity entry was “reverse transcriptase activity increases” in the data set with reverse transcriptase (13 days); “markedly inhibit infectious virus production and reverse transcriptase activity in a dose-dependent manner” with reverse transcriptase (between 8 and 10 days). Further, in the data set with extracellular HIV-1 (2.0 μM, in words), the “inactivation of extracellular HIV-1 infectivity” value is recorded as “does not inactivate extracellular HIV-1 infectivity”. This compound came in with a mean residual plaques in the data set with extracellular HIV-1 (HIV-1 treated 2.0 μM, 3 hours, 37° C., diluted 20-fold, N=2 (medium: 27 plaques)) of 22 plaques.
On to `CC[C@]1(O)C[C@H]2CN(CCc3c([nH]c4ccccc34)[C@@](C(=O)OC)(c3cc4c(cc3OC)N(C=O)[C@H]3[C@@](O)(C(=O)OC)[C@H](OC(C)=O)[C@]5(CC)C=CCN6CC[C@]43[C@@H]65)C2)C1` [vincristine, reference compound], for which, in the data set on KB cells [4] (0.004 μg per milliliter vincristine), the “cell number, % of control” value is 27%.
Regarding `CCCCCCCCCCCCCCCCOCC[N+](C)(C)CCCO.[I-]` [VI, 2-hexadecyloxy-N,N-dimethyl-N-gamma-hydroxypropyl-1-ethyl ammonium iodide], the IC50 in the data set with K562-4 cells was found to be 2200 ± 410 nM; with 77 cells, 2050 ± 910 nM; in the data set on KB cells [6], 230 ± 70 nM; in the data set with HL-60 cells, 450 ± 11 nM. For the same compound, the 77/KB with 77 cells came out at 8.9 ± 4.79. Also, the increased survival in data set [5] (50 mg/kg) was 26%; in [5] (75 mg/kg), 48%. Besides, the reduced survival in data set [5] (75 mg/kg on days 1 and 2) is 48%. For the same compound, the “in vivo activity against P388” value in [5] (in words) is listed as “appeared to have in vivo activity against P388”. In addition, the survival time result in [5] (one 50 mg/kg dose on day 1) is “did not affect survival time”. Also, in data set [5] (single 100 mg/kg dose on day 1), the lethality entry is “killed all the mice by day 2”.
Consider `CCCCCCCCCCCCCCCCCCOCC[N+](C)(C)CCO.[I-]` [VIII, 2-octadecyloxy-N,N-dimethyl-N-β-hydroxyethyl-1-ethyl ammonium iodide], for which the IC50 in the data set with K562-4 cells was 1900 nM; in the data set on P388 cells it was 420 nM; in the data set with 77 cells, 1800 ± 810 nM; with ChaGo cells (Homo sapiens) it was 1000 nM; with KB cells [6] it was 300 ± 140 nM; in the data set with MH1 C1 cells (MH1 C1) it was 7700 nM. This compound returned an IC50 with MH1 C1 cells (Rattus norvegicus, MH1C1, MH1 C1) of 6400 nM. For the same compound, the 77/KB in the data set on 77 cells is listed as 5.8 ± 3.8. The activity at 1 µM with KB cells [4] (Homo sapiens, 1 μM VIII, read-out: cell number, % of control) is 45%. In addition, the synergism with vincristine result with KB cells [4] (in words) is given as “acted synergistically with vincristine against KB cells”. For the same compound, in the data set on MH1 C1 cells (MH1 C1 vs 77 cells), the “sensitivity of MH1 C1 cells relative to 77 cells” value is listed as “two to three times less sensitive to growth inhibition than 77 cells”.
Turning to Dextran Sulfate [reference compound], the “inhibition of HIV-1 binding to target T-cells” value in data set [7] is given as “a known inhibitor of HIV-1 binding to target T-cells”. The “Inhibition (%)” value in the data set with HIV-1 [3] (1 μM) was found to be 91%; in the data set with HIV-1 [3] (1 μM, listed as dextran sulfate), 92%; with HIV-1 [3] (2 μM), 100%; in the data set with HIV-1 [3] (10 μM) it was 100%.
`CCCCCCCCCCCCCCCCCCOCC(O)C[N+](C)(C)CCO.[I-]` (racemic) [X, (±)-3-octadecyloxy-2-hydroxy-N,N-dimethyl-N-β-hydroxyethyl-1-propyl ammonium iodide]: the IC50 turned out to be 2500 nM with K562-4 cells; 1330 ± 400 nM in the data set on 77 cells; 2800 nM with ChaGo cells; 1700 nM with ChaGo cells (Homo sapiens); 350 ± 50 nM in the data set on KB cells [6]. In addition, in the data set with 77 cells, the 77/KB came out at 2.9 ± 0.96.

Values taken from US5614548A, “Quaternary amine containing ether or ester lipid derivatives and therapeutic compositions” (priority 1994, dated 1997).
